What was measured:
Assay in all cases: Kinase panel profiling at 1 µmol/L (MSA or IMAP), percentage inhibition
Format in all cases: biochemical
[1] = target: panel of 255 wild-type kinases (Homo sapiens, UniProt O94804); conditions: kinase LOK; 1 µmol/L single concentration; read-out: %-inhibition at 1 µmol/L, LOK
[2] = target: panel of 255 wild-type kinases (Homo sapiens, UniProt P07332); conditions: kinase FES; 1 µmol/L single concentration; read-out: %-inhibition at 1 µmol/L, FES
[3] = target: panel of 255 wild-type kinases (Homo sapiens, UniProt P07948); conditions: kinase LYNa; 1 µmol/L single concentration; read-out: %-inhibition at 1 µmol/L, LYNa
[4] = target: panel of 255 wild-type kinases (Homo sapiens, UniProt P12931); conditions: kinase SRC; 1 µmol/L single concentration; read-out: %-inhibition at 1 µmol/L, SRC
[5] = target: T1, panel of 255 wild-type kinases (Homo sapiens, UniProt P30530); conditions: AXL kinase assay; 1 µmol/L single concentration; read-out: %-inhibition AXL
T1 sequence (P30530 26-894): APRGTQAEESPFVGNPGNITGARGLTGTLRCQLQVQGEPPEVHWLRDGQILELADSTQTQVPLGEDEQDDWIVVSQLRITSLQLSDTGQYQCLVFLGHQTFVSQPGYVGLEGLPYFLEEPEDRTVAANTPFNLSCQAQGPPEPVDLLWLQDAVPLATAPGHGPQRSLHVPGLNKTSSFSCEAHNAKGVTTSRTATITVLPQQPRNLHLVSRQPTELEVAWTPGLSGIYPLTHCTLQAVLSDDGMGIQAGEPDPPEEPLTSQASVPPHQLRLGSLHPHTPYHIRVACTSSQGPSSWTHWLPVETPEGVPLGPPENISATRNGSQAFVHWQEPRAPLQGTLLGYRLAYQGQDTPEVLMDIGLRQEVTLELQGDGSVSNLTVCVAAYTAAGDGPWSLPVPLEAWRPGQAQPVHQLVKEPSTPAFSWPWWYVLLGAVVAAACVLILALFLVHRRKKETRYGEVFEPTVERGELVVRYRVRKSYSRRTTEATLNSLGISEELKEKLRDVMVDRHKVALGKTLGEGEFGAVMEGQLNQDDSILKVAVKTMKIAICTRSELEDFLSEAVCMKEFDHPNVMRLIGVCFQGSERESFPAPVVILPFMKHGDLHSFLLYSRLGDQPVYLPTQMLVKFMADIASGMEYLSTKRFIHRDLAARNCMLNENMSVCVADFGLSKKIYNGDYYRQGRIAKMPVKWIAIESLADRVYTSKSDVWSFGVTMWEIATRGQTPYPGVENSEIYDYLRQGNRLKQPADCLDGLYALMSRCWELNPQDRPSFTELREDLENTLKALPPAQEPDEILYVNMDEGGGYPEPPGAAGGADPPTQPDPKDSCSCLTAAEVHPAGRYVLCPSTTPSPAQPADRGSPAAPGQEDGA

[6] = target: panel of 255 wild-type kinases (Homo sapiens, UniProt P31749); conditions: AKT1 kinase assay; 1 µmol/L single concentration; read-out: %-inhibition AKT1
[7] = target: panel of 255 wild-type kinases (Homo sapiens, UniProt P48730); conditions: kinase CK1δ; 1 µmol/L single concentration; read-out: %-inhibition at 1 µmol/L, CK1δ
[8] = target: panel of 255 wild-type kinases (Homo sapiens, UniProt P78368); conditions: kinase CK1γ2; 1 µmol/L single concentration; read-out: %-inhibition at 1 µmol/L, CK1γ2
[9] = target: panel of 255 wild-type kinases (Homo sapiens, UniProt Q15119); conditions: kinase PDHK2; 1 µmol/L single concentration; read-out: %-inhibition at 1 µmol/L, PDHK2
[10] = target: panel of 255 wild-type kinases (Homo sapiens, UniProt Q8TDX7); conditions: NEK7; 1 µmol/L single concentration; read-out: %-inhibition, NEK7
[11] = target: T2, panel of 255 wild-type kinases (Homo sapiens, UniProt Q9NZJ5); conditions: kinase PEK; 1 µmol/L single concentration; read-out: %-inhibition at 1 µmol/L, PEK
T2 sequence (Q9NZJ5 30-1116): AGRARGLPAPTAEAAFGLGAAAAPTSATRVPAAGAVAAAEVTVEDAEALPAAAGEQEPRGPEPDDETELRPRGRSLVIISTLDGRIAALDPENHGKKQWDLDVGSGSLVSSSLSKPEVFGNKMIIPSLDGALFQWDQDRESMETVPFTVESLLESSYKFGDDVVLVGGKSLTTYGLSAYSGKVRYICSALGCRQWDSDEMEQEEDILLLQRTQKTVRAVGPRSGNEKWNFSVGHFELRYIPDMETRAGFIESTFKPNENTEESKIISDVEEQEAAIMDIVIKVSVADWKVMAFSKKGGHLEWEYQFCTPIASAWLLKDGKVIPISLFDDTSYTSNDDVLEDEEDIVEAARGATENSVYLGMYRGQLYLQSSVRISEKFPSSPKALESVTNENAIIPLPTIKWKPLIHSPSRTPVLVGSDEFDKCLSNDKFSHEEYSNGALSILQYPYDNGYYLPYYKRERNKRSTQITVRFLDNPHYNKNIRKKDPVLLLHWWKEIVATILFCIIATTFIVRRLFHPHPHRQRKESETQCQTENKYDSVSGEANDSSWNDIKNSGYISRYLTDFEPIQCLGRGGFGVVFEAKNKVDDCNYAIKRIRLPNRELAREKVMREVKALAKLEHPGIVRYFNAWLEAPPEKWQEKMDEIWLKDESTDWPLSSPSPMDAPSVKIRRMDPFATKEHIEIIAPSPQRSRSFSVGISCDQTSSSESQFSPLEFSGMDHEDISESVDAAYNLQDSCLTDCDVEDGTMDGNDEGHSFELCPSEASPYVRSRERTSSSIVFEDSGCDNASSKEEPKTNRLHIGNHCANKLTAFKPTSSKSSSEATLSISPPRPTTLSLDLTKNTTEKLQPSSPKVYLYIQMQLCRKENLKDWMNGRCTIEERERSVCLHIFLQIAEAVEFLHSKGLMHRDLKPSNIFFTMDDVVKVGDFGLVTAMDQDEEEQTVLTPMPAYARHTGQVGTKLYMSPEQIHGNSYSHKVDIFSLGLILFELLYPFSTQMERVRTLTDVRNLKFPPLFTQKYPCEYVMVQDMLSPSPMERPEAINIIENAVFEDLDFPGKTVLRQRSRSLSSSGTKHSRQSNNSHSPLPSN

inhibition at 1 µM [1] [%] | inhibition at 1 µM [2] [%] | inhibition at 1 µM [3] [%] | inhibition at 1 µM [4] [%] | inhibition at 1 µM [5] [%] | inhibition at 1 µM [6] [%] | inhibition at 1 µM [7] [%] | inhibition at 1 µM [8] [%] | inhibition at 1 µM [9] [%] | inhibition at 1 µM [10] [%] | inhibition at 1 µM [11] [%] | SMILES
5.3 | -1.07 | 5 | -4.39 | 4.22 | -15 | -8 | -7 | 5 | 0.263 | 4 | O=C(Nc1cnn2ccc(N3CCC[C@@H]3c3cc(F)ccc3F)nc12)N1CC[C@H](O)C1 [larotrectinib]
13 | 8 | 92 | 94 | 92 | -12 | 0.94 | -13 | 1.11 | -3 | 2.26 | CO[C@]1(C(=O)N[C@@H](C)c2ccc(-n3cc(F)cn3)nc2)CC[C@H](c2nc(C)cc(Nc3cc(C)[nH]n3)n2)CC1 [pralsetinib]
40 | 15 | 60 | 48 | 93 | -10 | -1.7 | -2.46 | -0.608 | 1 | 2.16 | COc1ccc(CN2C3CC2CN(c2ccc(-c4cc(OCC(C)(C)O)cn5ncc(C#N)c45)cn2)C3)cn1 [selpercatinib]
5 | -3.3 | 6.53 | -2.83 | 26 | -11 | -1.44 | -1.66 | 2.47 | -0.844 | -0.188 | Cn1cnc2c(F)c(Nc3ccc(Br)cc3Cl)c(C(=O)NOCCO)cc21 [selumetinib]
6.43 | 1.74 | 7 | -2 | 22 | -9 | -2.17 | -4 | -2 | -5.58 | 1.59 | Cc1cc(Nc2ncnc3ccc(NC4=NC(C)(C)CO4)cc23)ccc1Oc1ccn2ncnc2c1 [tucatinib]

SMILES | inhibition at 1 µM [1] [%] | inhibition at 1 µM [2] [%] | inhibition at 1 µM [3] [%] | inhibition at 1 µM [4] [%] | inhibition at 1 µM [5] [%] | inhibition at 1 µM [6] [%] | inhibition at 1 µM [7] [%] | inhibition at 1 µM [8] [%] | inhibition at 1 µM [9] [%] | inhibition at 1 µM [10] [%] | inhibition at 1 µM [11] [%]
CCN1C(=O)N(c2c(F)c(OC)cc(OC)c2F)Cc2cnc3[nH]c(CN4CCOCC4)cc3c21 [pemigatinib] | 4.7 | 1.55 | 66 | 2.67 | 4.45 | -12 | -4.55 | -9 | 3.53 | 3 | 17
FC(F)(F)c1ccc(CNc2ccc(Cc3c[nH]c4ncc(Cl)cc34)cn2)cn1 [pexidartinib] | 25 | 27 | 24 | 0.371 | 39 | -20 | -3.46 | -0.864 | 4 | -2.52 | -10
CCn1c(=O)c(-c2cc(NC(=O)Nc3ccccc3)c(F)cc2Br)cc2cnc(NC)cc21 [ripretinib] | 53 | 23 | 85 | 71 | 4 | -6 | -8 | -2.31 | 0.884 | -7 | 9
